We go through 27 molecules from paper PMC5700813, “A recombinant BBSome core complex and how it interacts with ciliary cargo” (eLife, 2017).

One may read the Kd as the concentration at which binding is half-saturated.

B1: Arl6•GppNHp: Arl6 (residues 17–186, Q73L, C-terminal Strep-tag) with the nucleotide exchanged to GppNHp (protein)
chain: EVHVLCLGLDNSGKTTIINKLKPSNAQSQNILPTIGFSIEKFKSSSLSFTVFDMSGLGRYRNLWEHYYKEGQAIIFVIDSSDRLRMVVAKEELDTLLNHPDIKHRRIPILFFANKMDLRDAVTSVKVSQLLCLENIKDKPWHICASDAIKGEGLQEGVDWLQDQIQTVKT
modifications: left off: Strep-tag, C-terminal, kept
notes: Arl6 (residues 17–186, Q73L, C-terminal Strep-tag) with the nucleotide exchanged to GppNHp
B2: Arl6•GDP: Arl6 (residues 17–186, Q73L, C-terminal Strep-tag) with the nucleotide exchanged to GDP (protein)
chain: EVHVLCLGLDNSGKTTIINKLKPSNAQSQNILPTIGFSIEKFKSSSLSFTVFDMSGLGRYRNLWEHYYKEGQAIIFVIDSSDRLRMVVAKEELDTLLNHPDIKHRRIPILFFANKMDLRDAVTSVKVSQLLCLENIKDKPWHICASDAIKGEGLQEGVDWLQDQIQTVKT
modifications: left off: Strep-tag, C-terminal, kept
notes: Arl6 (residues 17–186, Q73L, C-terminal Strep-tag) with the nucleotide exchanged to GDP

“Also recorded” adds a separate entry of the source. Ends that are not written are not given here. Peptide text beside a SMILES is read from it.

In one assay the test system is T1, core BBSome (BBS1,4,5,8,9,18).
T1 construct: His-tag; made in house; host or cells: Hi5 insect cells (baculovirus)
T1 sequence (Q8NFJ9 whole entry, stated change not applied): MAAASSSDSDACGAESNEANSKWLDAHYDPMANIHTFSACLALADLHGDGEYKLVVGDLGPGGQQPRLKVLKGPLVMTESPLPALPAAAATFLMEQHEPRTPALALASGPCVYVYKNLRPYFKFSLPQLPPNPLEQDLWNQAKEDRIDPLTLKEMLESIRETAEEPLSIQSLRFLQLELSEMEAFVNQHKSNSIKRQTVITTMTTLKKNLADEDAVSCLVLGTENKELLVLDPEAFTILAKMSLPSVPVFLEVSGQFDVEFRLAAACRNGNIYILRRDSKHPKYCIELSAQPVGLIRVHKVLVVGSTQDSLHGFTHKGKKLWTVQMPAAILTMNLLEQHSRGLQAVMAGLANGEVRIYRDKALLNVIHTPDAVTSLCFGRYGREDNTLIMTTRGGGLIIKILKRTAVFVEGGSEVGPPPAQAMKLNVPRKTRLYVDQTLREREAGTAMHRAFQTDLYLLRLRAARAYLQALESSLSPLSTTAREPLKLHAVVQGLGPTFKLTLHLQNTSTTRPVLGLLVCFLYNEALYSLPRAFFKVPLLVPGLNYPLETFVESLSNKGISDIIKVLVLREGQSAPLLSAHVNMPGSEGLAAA
T1 sequence (Q96RK4 whole entry, stated change not applied, further chain): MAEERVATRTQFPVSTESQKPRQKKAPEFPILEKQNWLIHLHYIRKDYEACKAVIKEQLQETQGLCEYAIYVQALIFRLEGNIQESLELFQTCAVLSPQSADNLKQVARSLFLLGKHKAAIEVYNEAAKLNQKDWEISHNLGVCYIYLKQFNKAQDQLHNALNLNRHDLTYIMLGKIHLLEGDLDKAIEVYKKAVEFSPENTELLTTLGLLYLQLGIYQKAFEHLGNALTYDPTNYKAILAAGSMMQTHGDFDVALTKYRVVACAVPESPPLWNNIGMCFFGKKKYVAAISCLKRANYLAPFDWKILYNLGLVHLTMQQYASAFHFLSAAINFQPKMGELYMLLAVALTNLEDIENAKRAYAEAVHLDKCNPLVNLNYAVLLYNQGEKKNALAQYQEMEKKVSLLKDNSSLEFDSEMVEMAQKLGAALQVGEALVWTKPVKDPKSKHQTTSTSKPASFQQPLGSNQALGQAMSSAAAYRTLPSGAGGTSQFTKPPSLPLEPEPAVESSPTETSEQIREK
T1 sequence (Q8N3I7 whole entry, stated change not applied, further chain): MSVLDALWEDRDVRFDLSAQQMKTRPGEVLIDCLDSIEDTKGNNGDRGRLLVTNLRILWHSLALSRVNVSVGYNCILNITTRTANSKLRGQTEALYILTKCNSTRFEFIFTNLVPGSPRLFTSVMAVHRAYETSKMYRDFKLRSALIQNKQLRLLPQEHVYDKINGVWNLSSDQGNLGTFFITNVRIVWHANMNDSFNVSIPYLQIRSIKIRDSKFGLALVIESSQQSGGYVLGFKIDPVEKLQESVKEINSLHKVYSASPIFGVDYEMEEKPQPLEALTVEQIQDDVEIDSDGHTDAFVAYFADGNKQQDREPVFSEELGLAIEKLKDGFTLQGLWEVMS
T1 sequence (Q8TAM2 with tags, fused parts or gaps isoform Q8TAM2-4 DEL39-48, further chain): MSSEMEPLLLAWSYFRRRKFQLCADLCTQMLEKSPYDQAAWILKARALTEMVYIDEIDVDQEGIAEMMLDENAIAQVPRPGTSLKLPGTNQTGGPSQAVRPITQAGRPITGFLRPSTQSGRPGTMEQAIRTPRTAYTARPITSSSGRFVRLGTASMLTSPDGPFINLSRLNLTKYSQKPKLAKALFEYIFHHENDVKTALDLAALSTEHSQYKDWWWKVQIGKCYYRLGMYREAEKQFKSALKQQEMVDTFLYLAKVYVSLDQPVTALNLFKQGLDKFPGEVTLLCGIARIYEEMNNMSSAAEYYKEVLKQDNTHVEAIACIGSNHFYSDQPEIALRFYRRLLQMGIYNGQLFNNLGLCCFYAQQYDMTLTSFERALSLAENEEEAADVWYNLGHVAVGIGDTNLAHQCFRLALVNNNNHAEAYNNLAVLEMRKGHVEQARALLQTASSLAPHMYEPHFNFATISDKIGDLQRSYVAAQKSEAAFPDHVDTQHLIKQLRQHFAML
T1 sequence (Q3SYG4 whole entry, stated change not applied, further chain): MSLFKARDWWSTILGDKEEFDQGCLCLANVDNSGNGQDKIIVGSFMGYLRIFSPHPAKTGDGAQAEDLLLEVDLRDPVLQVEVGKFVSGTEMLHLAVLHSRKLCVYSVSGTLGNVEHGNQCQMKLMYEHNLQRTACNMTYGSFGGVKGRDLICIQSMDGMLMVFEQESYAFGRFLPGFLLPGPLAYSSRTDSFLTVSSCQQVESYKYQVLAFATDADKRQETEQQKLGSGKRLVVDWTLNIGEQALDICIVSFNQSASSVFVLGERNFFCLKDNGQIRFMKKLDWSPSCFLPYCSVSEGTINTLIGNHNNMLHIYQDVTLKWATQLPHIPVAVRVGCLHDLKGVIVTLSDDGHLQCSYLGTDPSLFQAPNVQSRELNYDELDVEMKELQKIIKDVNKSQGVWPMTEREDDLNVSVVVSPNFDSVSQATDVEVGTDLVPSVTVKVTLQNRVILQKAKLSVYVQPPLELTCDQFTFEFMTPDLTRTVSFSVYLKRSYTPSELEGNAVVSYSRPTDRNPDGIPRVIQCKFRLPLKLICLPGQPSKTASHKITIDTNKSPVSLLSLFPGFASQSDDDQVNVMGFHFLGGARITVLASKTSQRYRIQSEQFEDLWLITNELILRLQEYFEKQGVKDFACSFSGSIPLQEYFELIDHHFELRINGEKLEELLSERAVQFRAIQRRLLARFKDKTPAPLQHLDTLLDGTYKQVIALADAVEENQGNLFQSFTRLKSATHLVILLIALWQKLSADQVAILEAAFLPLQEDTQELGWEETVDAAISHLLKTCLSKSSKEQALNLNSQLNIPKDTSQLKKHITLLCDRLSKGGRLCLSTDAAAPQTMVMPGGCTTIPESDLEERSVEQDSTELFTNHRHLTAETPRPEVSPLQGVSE
T1 sequence (A8MTZ0 whole entry partner): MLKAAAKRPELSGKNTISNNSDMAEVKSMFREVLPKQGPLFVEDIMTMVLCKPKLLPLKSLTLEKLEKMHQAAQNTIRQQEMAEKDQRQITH
As to the kind of experiment: Fluorescence polarization binding of fluorescently labeled peptides to the core BBSome.
Settings: not given
Set-up: species or system human. From the text: Our microarray data indicated multiple closely spaced binding epitopes in several cases. Where possible, we combined those epitopes into a single fluorescent peptide with up to 37 residues length to more fully reflect the binding site/motif. […] Cargo binding to the core BBSome with fluorescence polarization, measured by using fluorescently labeled peptides and the purified core BBSome. […] All peptides were N-terminally labeled with fluorescein, with an exception of a C-terminally TMR-labeled SSTR3 CT1 peptide (orange squares) that was used as a control to exclude nonspecific binding events due to the used fluorophore. […] (Data points exceeding this mark might indicate secondary binding events at high BBSome concentrations). (C) Fluorescent peptides from the C-terminus of Smo (Smo CT1-4) and a truncated Smoothened construct (Smo […]-[…]) were analyzed as described above. (D) The peptide SSTR3 CT2 that bound with highest affinity to the core BBSome was used as a template for the design and analysis of mutant peptides (SSTR3 CT3-9) with substitutions of one or multiple residues as indicated. Polarization experiments were performed as described above and dissociation constants (KD) are presented as ratios to the KD of the wild type peptide as a bar diagram. (E) Bar diagram of the relative affinities of SmoCT1 and CT3 relative to SmoCT4, as determined in C, and of mutant Smo CT4 peptides with substitutions as indicated. […] Cargo binding to the core BBSome. […] Core BBSome was added at the indicated concentrations and the increase in fluorescence polarization was monitored as a measure for the peptides binding to the protein complex. […] Mutational analysis of the BBSome binding peptides. […] The peptides SSTR3 CT2 (A) and of Smo CT4 (B) that bound with highest affinity to the core BBSome were used as templates for the design of mutant peptides with one or multiple aromatic/basic residue motifs changed to alanines as summarized in Table 1. Core BBSome was added at the indicated concentrations and the increase in fluorescence polarization was monitored as a measure for the peptides binding to the protein complex. […] Fluorescently labeled peptides were purchased from Proteogenix (Proteogenix SAS, France). Fluorescein-labels are located N-terminally to the peptide sequence and TAMRA at the C-terminal side. Fluorescence polarization experiments were performed using a Fluoromax-4 spectrophotometer (HORIBA Jobin Yvon, Germany) or a Safire two multimode plate reader (Tecan, Switzerland). Fluoresceine-labeled samples were measured with excitation/emission wavelengths of λEx = 490 nm and λEm = 520 nm with a bandwidth of 7 nm on the Fluoromax-4. […] Sample volumes were 20 μl in a 1,5 × 1,5 mm cuvette (Hellma Analytics, Germany) for the Fluoromax-4 and 4.5 μl in a 384 well low-binding plate (Corning, Germany). Data analysis was done with the Origin 9.0 program suite (Originlab, Northampton, MA). The polarization curves were fit against the function FI = Fmin […] Fmax corresponding to the fluorescence polarization signal and the signal of unbound and completely saturated fluorescent molecule E with interaction partner L, respectively. The concentrations of molecule E are indicated in the corresponding figure legends, and the calculated dissociation constants KD are listed in Table 1.
In the case of KRIKKSKMIAKAFSK [Smo CT2], the “binding to core BBSome (result in words)” value is “only weak interaction”.

The assay is the same for the next values; noted with them: N-terminally fluorescein-labeled peptide 0.1–1 µM titrated with purified core BBSome, fitted to binding curve.
With TLLIAARTAARLTGQSDDE [Smo CT7], the Kd was 14.3 µM.

Still in this assay, the particulars now being: N-terminally fluorescein-labeled peptide 0.1–1 µM titrated with purified core BBSome, fitted to binding curve, read-out: KD (converted).
With `CC(C)C[C@H](NC(=O)[C@H](C)NC(=O)[C@H](CCCNC(=N)N)NC(=O)[C@H](CCCCN)NC(=O)[C@H](Cc1ccccc1)NC(=O)[C@H](CC(=O)O)NC(=O)[C@@H](N)CCCNC(=N)N)C(=O)NCC(=O)N[C@@H](CCCNC(=N)N)C(=O)N[C@@H](Cc1ccccc1)C(=O)N[C@@H](CC(C)C)C(=O)N1CCC[C@H]1C(=O)N[C@@H](CS)C(=O)N1CCC[C@H]1C(=O)N[C@@H](CCCNC(=N)N)C(=O)N[C@@H](CS)C(=O)N1CCC[C@H]1C(=O)N[C@@H](CCCNC(=N)N)C(=O)N[C@@H](CCC(=O)O)C(=O)N[C@@H](CCCNC(=N)N)C(=O)O` [5HT6 CT] (H-RDFKRALGRFLPCPRCPRER-OH), the Kd is 44.2 ± 10.9 µM.
Consider FIFRVARVKARKVHCG [GPR161 3ICL], for which the Kd is 6.3 ± 1.5 µM.
Same read-out and setting: under GFLSAAAAQGAARVLLRPSRRVRS [SSTR3 CT8] stands 11 µM; under GFLSAAAAQGFRRVLLRPSRRVRS [SSTR3 CT7], 1 µM.
Consider GFLSAAFKQGAARVLLRPSRRVRS [SSTR3 CT6], for which the Kd was 4.5 µM.
For the molecule GFLSAAFKQGFRRVLLRPSRRVRS [SSTR3 CT3], the Kd is 1.1 µM.
GFLSYRAAQGFRRVLLRPSRRVRS [SSTR3 CT4]: the Kd was 0.4 µM.
Same read-out and setting: under GFLSYRFKQGAARVLLRPSRRVRS [SSTR3 CT5] stands 1.5 µM; under GFLSYRFKQGFRRVLLRPSEEVES [SSTR3 CT9], 4.7 µM.
Consider GFLSYRFKQGFRRVLLRPSRRVRS [SSTR3 CT2], for which the Kd was 0.11 µM.
On the same count and under the same terms, as for “GRGSAAARSRYTCRLQQHDRGRRQ [NMU 3ICL2, N-terminally fluorescein-labeled peptide from the third intracellular loop of NMU-R1]”, the figure is greater than 100 µM; as for KRIKKSKMIAKAFSK [Smo CT2], greater than 100 µM; as for KRLGRKKKRRKRKKE [Smo CT8], 6.8 µM.
Same read-out and setting: as for LLIGLRLRRERLLLMQEAKGRG [NMU 3ICL1], the figure is 18.1 ± 1.6 µM; as for “NKTVRKELLGMCFGDRYYREPFVQRQR [GPR161 CT1]”, 67.4 ± 7.3 µM.
The same measure, in the same setting: as for RFKQGFRRVLLRPSR [SSTR3 CT1], the figure is 22.1 ± 1.4 µM; as for RILQRMTSSVAPASQRSIRLRTKRVTRT [MCH 3ICL], 68.8 ± 11.3 µM; as for TLLIAARTWCRLTGQSDDE [Smo CT5], 9.7 µM.
As for TLLIWRRTAARLTGQSDDE [Smo CT6], the Kd was 12.5 µM.
With TLLIWRRTWCRLTGQ [Smo CT1], the Kd was 1.8 ± 0.5 µM.
Still for that read-out and setting: as for TLLIWRRTWCRLTGQSDDE [Smo CT4], the figure is 1.1 µM; as for “TLLIWRRTWCRLTGQSDDEPKRIKKSKMIAKAFSKRH [Smo CT3]”, 1.4 µM.
For “VKVRSAGRRVWAPSCQRRRRSERRVTRM [SSTR3 3ICL]”, the Kd was 12.8 ± 1.07 µM.
For the molecule “VTARTVPGGGFGGRRGSRTLVS [GPR161 CT2, N-terminally fluorescein-labeled peptide from the C-terminal region of GPR161]”, the Kd is greater than 100 µM.

For another assay, the system named is core BBSome. Kind of assay: Pulldown of core BBSome with immobilized bait on Streptactin beads. The assay is classed as binding, human. The following applies: 7.5 fold molar excess of bait immobilized to Streptactin-coupled Sepharose beads. From the text:
From previous data, BBS1 seems to be the BBSome subunit most relevant for cargo recognition and Arl6 binding. We first tested the binding of Arl6 to the BBSome core complex. […] To test whether the core BBSome can recognize known BBSome cargo proteins, we generated a truncated (residues R546-L665) version of the Smo receptor, which contains a ciliary targeting motif predicted to interact with the BBSome ([Zhang et al., 2012a]; [Seo et al., 2011]; [Corbit et al., 2005]). In pulldown experiments as described above (Figure 3), the binding was clearly detectable, but considerably weaker than that of Arl6•GppNHp. In fluorescence polarization experiments (see below), we determined the affinity for a fluoresceine-labeled version of this Smo fragment to be 36.1 ± 3.9 µM.
Figure 3. Pulldown of core BBSome with immobilized Arl6 and Smoothened domain R546-L665. Purified core BBSome samples were pulled down by a 7.5 fold molar excess of Arl6•GDP, Arl6•GppNHp or Smo(R546-L665) immobilized to Streptactin-coupled Sepharose beads. […] Smo(R546-L665) bound weaker, but still captured >2% of the BBSome sample. This was approximated by a comparison of the 1:50 diluted Arl6•GppNHp elution with the undiluted Smo(R546-L665) elution in a Flag-blot against Flag-BBS8 from the BBSome core complex.
Pulldown assays were performed using 20 µl Strep-Tactin Superflow high capacity resin (IBA, Germany) per assay equilibrated with pulldown buffer (50 mM Hepes pH 8.0, 150 mM NaCl, 5 mM MgCl2, 5 mM ß-ME and 0.05% DDM). Smo(R546-L665, N-terminal Strep-tag) and Arl6 (residues 17–186, Q73L, C-terminal Strep-tag, with the nucleotide exchanged to either GDP or GppNHp) was immobilized as the bait, and the 6mer BBSome core complex served as the prey (The dual-Strep-tag on BBS18 within the complex was completely removed by Prescission protease cleavage for this experiment). 35 µg of the bait proteins were incubated with the beads in 1 ml pulldown buffer at 4°C for 1 hr, and the unbound protein was washed away with 3 × 1 ml pulldown buffer. […]
B1: the “pulldown of core BBSome (result in words)” value was “precipitated the major part of the BBSome”.
Still for that read-out and setting: as for B2, the entry is “no detectable affinity; also recorded: no interaction”.

The same assay, now with this note: 7.5 fold molar excess of bait immobilized to Streptactin-coupled Sepharose beads; listed as Arl6•GppNHP.
With B1, the “pulldown of core BBSome (result in words)” value is listed as “captured most of the BBSome sample”.
